# Patent publication US20120142645A1, “NEUROACTIVE STEROID COMPOSITIONS AND METHODS OF USE FOR LOWERING CHOLESTEROL” (priority 2009, published 2012)
# Tests used:
# [1] = Serum neurosteroid and steroid levels (GC/MS, RIA) at baseline and post-treatment; same trial; conditions: for Serum Androstenedione level / Serum Cortisol level / Serum DHEA level / Serum DHEAS level / Serum PGS (pregnenolone sulfate) level / Serum Total testosterone level / Serum Estradiol level / Serum ALLO (allopregnanolone) level / Serum Free testosterone level / Serum PG (pregnenolone) level / Serum Progesterone level: mean ± SD; for Serum Estradiol level: n = 7; for Serum ALLO (allopregnanolone) level / Serum Free testosterone level / Serum PG (pregnenolone) level / Serum Progesterone level: n = 8; for Serum testosterone, free testosterone, cortisol, DHEA, estradiol, or androstenedione levels: after 8 weeks of pregnenolone vs baseline
# Description: Study drug was dispensed every 2 weeks at each study visit at fixed escalating doses as follows: Visit 1: Two-week single-blind placebo lead-in phase, one placebo tablet twice each day (all pts), Visit 2: Randomization to PREG 50 mg twice each day (100 mg/day total) or placebo for 2 wks, Visit 3: PREG 150 mg twice each day (300 mg/day total) or placebo for 2 weeks, Visit 4: PREG 250 mg twice each day (500 mg/day total) or placebo for 2 weeks, Visit 5: PREG 250 mg twice each day (500 mg/day total) or placebo continued for 2 weeks. Patients thus received PREG 500 mg per day in divided doses during the last 4 weeks of the study. Patients also received the Hillside Adverse Events Scale at Visits 2-6, and during staggered telephone check-in calls every two weeks, beginning one week into the single-blind placebo lead-in phase.
# Neurosteroid Analyses. […] One mL of serum was extracted three times in ethyl acetate prior to high performance liquid chromatography (HPLC) purification utilizing tetrahydrofuran, ethanol, and hexane in the mobile phase. All samples were injected in duplicate. […] All other serum steroid levels were determined utilizing commercially available radioimmunoassay (RIA) kits according to manufacturer directions (progesterone, cortisol, testosterone, free testosterone, and DHEAS: Diagnostic System Laboratories, Webster, Tex.). DHEA serum levels were determined utilizing a kit from ICN Pharmaceuticals (Costa Mesa, Calif.).
# Statistical Analysis. Primary endpoints were changes from baseline at Visit 2 following a two-week placebo lead-in period (all patients) to final assessment at Visit 6 in cognitive symptoms (as assessed by BAGS and MATRICS composite scores) and negative symptoms (as assessed by SANS total scores). […] Student's t-tests were conducted on the change scores between treatment groups in this proof-of-concept study (two-tailed alpha p=0.05 for each statistical test).
# [2] = system: patients with schizophrenia or schizoaffective disorder; assay: SANS negative symptoms; randomized placebo-controlled 8-week trial of adjunctive pregnenolone (100, 300, then 500 mg/day oral); assay type: in vivo, human; conditions: for SANS Total, change: text prints it as positive mean change (improvement); for SANS Total, difference PG vs placebo: points; for SANS Affect subscale score / SANS Alogia subscale score / SANS Anhedonia/asociality subscale score / SANS Attention subscale score / SANS Avolition/apathy subscale score / SANS Total score: mean ± SD, n = 8
# Description: Study Design and Subjects. Disclosed herein is a placebo-controlled, double-blind, parallel group, randomized trial of adjunctive pregnenolone for the treatment of cognitive and negative symptoms in patients with schizophrenia or schizoaffective disorder. […] Patients received a total of 6 study visits, which took place every two weeks. […] The trial was conducted at a single site, the Durham Veterans Affairs Medical Center in Durham, N.C. The protocol was approved by the local institutional review board and conducted under FDA Investigational New Drug (IND) #71,768. The ClinicalTrials.gov number for this study is NCT00560937.
# Subjects were outpatients between the ages of 18 and 65 with schizophrenia or schizoaffective disorder diagnosed by DSM-IV/DSM-IV-TR criteria utilizing the Structured Clinical Interview (First et al., 1996) and medical records. All subjects were between the ages of 18-65 and provided informed consent. Duration of illness was greater than one year for all enrolled patients. To be eligible for the trial, patients had to be taking a second-generation antipsychotic (aripiprazole, olanzapine, quetiapine, or risperidone) for at least 8 weeks, with no changes in antipsychotic dosing in the preceding 4 weeks. Patients receiving first-generation antipsychotics were excluded. Concomitant psychiatric medications were permissible (antidepressants, mood stabilizers, anticholinergics, other), provided that patients were receiving stable doses of all of these medications in the 4 weeks preceding the trial and throughout the entire duration of the study. Any change in psychiatric medications at any point during the study rendered a patient ineligible to continue participation.
# During the screening visit (Visit 1), patients received a physical exam, vital signs, and electrocardiogram (EKG), as well as baseline laboratory measures consisting of serum electrolytes, glucose, creatinine, blood urea nitrogen (chemistry 7 panel), liver function tests, complete blood count (CBC), urinalysis, urine toxicology test, thyroid stimulating hormone (TSH), and prolactin, and serum pregnancy test if female. These tests were also repeated at the completion of the study (Visit 6). In addition, patients received an interim EKG 4 weeks post-randomization, as well as a serum pregnancy test if female (Visit 4). Patients also received a chemistry 7 panel, CBC, and liver function tests at Visits 2, 3, 4, and 5 (i.e., at all study visits). Psychiatric symptoms were assessed at baseline using the Scale for the Assessment of Negative Symptoms (Andreasen, 1983), the Positive and Negative Symptom Scale (PANSS; Kay et al., 1987), the Calgary Depression Rating Scale (CDRS; Addington et al., 1990), the Clinical Global Impressions Improvement (CGI-I) and Severity (CGI-S) scales, the Barnes Akathisia Scale (BAS; Barnes, 1989), the Simpson Angus Scale for Extrapyramidal Symptoms (SAS; Simpson & Angus, 1970), the Quality of Life Scale (QOL; Heinrichs et al., 1984), and the Hillside Side Effects Scale. One research nurse with five years of experience in the conduction of schizophrenia clinical trials completed both psychiatric and cognitive assessments throughout the study, and was trained to one point of divergence on each PANSS item.
# [3] = after 8 weeks of pregnenolone, listed as Pregnenolone
# [4] = after 8 weeks of pregnenolone, listed as pregnenolone
# [5] = Difference in change from Week 0 to Week 8
compound,measurement,setting,value
"CC(=O)[C@H]1CC[C@H]2[C@@H]3CC=C4C[C@@H](O)CC[C@]4(C)[C@H]3CC[C@]12C [PG, pregnenolone]",Serum Androstenedione level,[1]; Week 0 (baseline),2.93 ± 1.30 ng/mL
same,Serum Cortisol level,[1]; Week 0 (baseline),8.08 ± 2.80 μg/100 ml
same,Serum DHEA level,[1]; Week 0 (baseline),7.85 ± 5.94 ng/mL
same,Serum DHEAS level,[1]; Week 0 (baseline),124.72 ± 86.52 μg/100 ml
same,Serum PGS (pregnenolone sulfate) level,[1]; Week 0 (baseline),33.4 ± 18.3 ng/mL
same,Serum Total testosterone level,[1]; Week 0 (baseline),302.83 ± 158.53 ng/100 ml
same,Serum Estradiol level,[1]; Week 0 (baseline),24.64 ± 6.21 pg/mL
same,Serum ALLO (allopregnanolone) level,[1]; Week 0 (baseline),110.7 ± 78.9 pg/mL
same,Serum Free testosterone level,[1]; Week 0 (baseline),7.96 ± 1.07 pg/mL
same,Serum PG (pregnenolone) level,[1]; Week 0 (baseline),499.9 ± 313.6 pg/mL
same,Serum Progesterone level,[1]; Week 0 (baseline),0.38 ± 0.15 ng/mL
same,Serum Androstenedione level,[1]; Week 8,3.01 ± 4.66 ng/mL
same,Serum Cortisol level,[1]; Week 8,7.96 ± 3.85 μg/100 ml
same,Serum DHEA level,[1]; Week 8,6.33 ± 3.26 ng/mL
same,Serum DHEAS level,[1]; Week 8,144.87 ± 97.30 μg/100 ml
same,Serum PGS (pregnenolone sulfate) level,[1]; Week 8,94.4 ± 14.3 ng/mL
same,Serum Total testosterone level,[1]; Week 8,303.08 ± 156.05 ng/100 ml
same,Serum Estradiol level,[1]; Week 8,25.42 ± 4.73 pg/mL
same,Serum ALLO (allopregnanolone) level,[1]; Week 8,823.1 ± 528.9 pg/mL
same,Serum Free testosterone level,[1]; Week 8,7.31 ± 2.04 pg/mL
same,Serum PG (pregnenolone) level,[1]; Week 8,2096.0 ± 999.4 pg/mL
same,Serum Progesterone level,"[1]; Week 8, listed as Pregnenolone",2.17 ± 0.64 ng/mL
same,Serum Progesterone level,"[1]; Week 8, listed as pregnenolone",2.17 ng/mL
same,Increase in serum DHEAS levels over baseline,[1]; after 8 weeks of pregnenolone,approximately 16%
same,Increase in serum PGS levels over baseline,[1]; after 8 weeks of pregnenolone,tripled
same,Increase in serum progesterone over baseline,[1]; after 8 weeks of pregnenolone,over four-fold
same,"Serum testosterone, free testosterone, cortisol, DHEA, estradiol, or androstenedione levels",[1]; listed as Pregnenolone,did not result in downstream elevations
same,"Serum testosterone, free testosterone, cortisol, DHEA, estradiol, or androstenedione levels",[1]; listed as pregnenolone,did not increase
same,Elevation in serum levels of PG over baseline,[1]; [3],approximately four-fold elevations
same,Increase in serum ALLO over baseline,[1]; [3],five-fold elevations
same,Elevation in serum levels of PG over baseline,[1]; [4],approximate four-fold increase
same,Increase in serum ALLO over baseline,[1]; [4],five-fold
same,"SANS Affect subscale, change",[2]; Change from Week 0 to Week 8,−4.3 ± 1.7
same,"SANS Alogia subscale, change",[2]; Change from Week 0 to Week 8,−1.9 ± 0.8
same,"SANS Anhedonia/asociality subscale, change",[2]; Change from Week 0 to Week 8,−2.4 ± 1.3
same,"SANS Attention subscale, change",[2]; Change from Week 0 to Week 8,−1.6 ± 0.4
same,"SANS Avolition/apathy subscale, change",[2]; Change from Week 0 to Week 8,−0.3 ± 0.3
same,"SANS Total, change",[2]; Change from Week 0 to Week 8,−10.4 ± 10.2
same,"SANS Total, change","[2]; Change from Week 0 to Week 8, listed as pregnenolone",10.38±10.18
same,"SANS Affect subscale, difference PG vs placebo",[2]; [5],−4.5 ± 1.9
same,"SANS Alogia subscale, difference PG vs placebo",[2]; [5],−1.5 ± 0.8
same,"SANS Anhedonia/asociality subscale, difference PG vs placebo",[2]; [5],−1.6 ± 1.3
same,"SANS Attention subscale, difference PG vs placebo",[2]; [5],−0.5 ± 0.5
same,"SANS Avolition/apathy subscale, difference PG vs placebo",[2]; [5],0.1 ± 0.6
same,"SANS Total, difference PG vs placebo",[2]; [5],−8.0 ± 3.7
same,"SANS Total, difference PG vs placebo","[2]; Difference in change from Week 0 to Week 8, listed as Pregnenolone",approximately 8
same,SANS Affect subscale score,[2]; Week 0 (baseline),13.4 ± 5.0
same,SANS Alogia subscale score,[2]; Week 0 (baseline),8.8 ± 3.6
same,SANS Anhedonia/asociality subscale score,[2]; Week 0 (baseline),12.0 ± 4.5
same,SANS Attention subscale score,[2]; Week 0 (baseline),5.6 ± 1.1
same,SANS Avolition/apathy subscale score,[2]; Week 0 (baseline),8.3 ± 2.5
same,SANS Total score,[2]; Week 0 (baseline),50.8 ± 12.2
same,SANS Total score,"[2]; Week 0 (baseline), listed as pregnenolone",47.56±12.09
same,SANS Affect subscale score,[2]; Week 4,14.3 ± 3.2
same,SANS Alogia subscale score,[2]; Week 4,7.8 ± 3.2
same,SANS Anhedonia/asociality subscale score,[2]; Week 4,10.4 ± 4.1
same,SANS Attention subscale score,[2]; Week 4,5.3 ± 1.0
same,SANS Avolition/apathy subscale score,[2]; Week 4,8.1 ± 1.0
same,SANS Total score,[2]; Week 4,45.8 ± 8.8
same,SANS Affect subscale score,[2]; Week 8,11.9 ± 0.4
same,SANS Alogia subscale score,[2]; Week 8,6.9 ± 2.1
same,SANS Anhedonia/asociality subscale score,[2]; Week 8,9.6 ± 3.5
same,SANS Attention subscale score,[2]; Week 8,4.0 ± 0
same,SANS Avolition/apathy subscale score,[2]; Week 8,8.0 ± 0.5
same,SANS Total score,[2]; Week 8,40.4 ± 3.5
